Assays:
[1] = tested on: HeLa (human cervical cancer cells); assay: WST-1 proliferation assay (Example 10), HeLa; type: cell-based; conditions: WST-1, 48 hours
Protocol: Cancer cells used herein were KMS34 (human myeloma cells), HeLa (human cervical cancer cells), HCT116 (human colon cancer cells; p53+/+), KATOIII (human stomach cancer cells), MDA-MB-231 (human breast cancer cells), HT-29 (human colon adenocarcinoma cells), PANC-1 (human pancreatic cancer cells), and Li-7 (human liver cancer cells). Proliferation assay of various cancer cells was performed by the WST-1 method (Cook, J A. & Mitchell, J B., Anal. Biochem., 179, 1-7, 1984) as follows. One μ1 each of PEG11(E)-TC11 and PEG11(O)-TC11 prepared in advance at target concentrations was added into each well of a 96-well microplate. Medium was added to the wells at 50 μl per well, and then mixed by tapping lightly the plate. Subsequently, KMS34 was prepared at a concentration of 5×10^5 cells/ml, and cells other than KMS34 were prepared at a concentration of 2×10^5 cells/ml. Cells were seeded at 50 μl per well (2.5×10^4 cells, 1×10^4 cells), and then incubated in a CO2 incubator (37° C., 5% CO2) for 48 hours. […] Subsequently, the plate was shaken with a plate reader for 1 minute, and then absorbance was measured at 450 nm. At this time, absorbance was also measured at 595 nm as a reference wavelength. The net absorbance was obtained by subtracting the absorbance at the reference wavelength from the absorbance at 450 nm.

[2] = Stability in medium (containing FBS); type: in vitro ADME
From the text: (§1) Subsequently, PEG11(E)-TC11 was examined for stability in mouse blood plasma (A) and in medium (B). […] Such degradation is considered to result from a small amount of esterase in FBS (fetal calf serum) contained in the medium.

[3] = Stability in mouse blood plasma; type: in vitro ADME
From the text: as §1

[4] = tested on: various high-risk MM cells (KMM1, KMS11, KMS21, KMS26, KMS27, KMS28, KMS34, MUM24); assay: MTT cell viability of various MM cells, PEG11(E)-TC11 vs lenalidomide (Example 9); type: cell-based, human; conditions: 48 hours, FIG. 5A
[5] = tested on: KMS21 high-risk MM cell line; assay: WST-1 cell proliferation inhibition (Example 8), KMS21; type: cell-based; conditions: Homo sapiens, WST-1, 48 hours, read-out: IC50, cell proliferation inhibitory activity, KMS21
Protocol: (§2) Similar to Example 7, high-risk MM cell lines were treated with drugs, TC11 and PEG5(E)-TC11 at arbitrary concentrations. […] Specifically, each high-risk MM cell line was prepared at 5×10^5 cells/ml, and then seeded at 50 μl per well (2.5×10^4 cells). Drugs such as TC11, and PEG5(E)-TC11 were added to wells at arbitrary concentrations. WST-1 reagent was added at 48 hours after addition of drugs. After 1 hour of reaction at 37° C. in a CO2 incubator, absorbance was measured at a wavelength of 450 nm using a microplate reader. Cell viability was found from an absorbance ratio using absorbance at 0 μM designated as 100%. IC50 was calculated from a semi-logarithmic chart using Microsoft (registered trademark) Excel.

cereblon (CRBN) = biological target: T1, cereblon (CRBN) (Homo sapiens, UniProt Q96SW2); assay: Pull-down assay of cereblon with biotinylated drug on streptavidin beads; type: binding; conditions: 30° C., 30 minutes, FIG. 9A
T1 construct: recombinant full-length CRBN prepared by the above method was reacted with the beads; T7 tag (N); FLAG tag (C); made in house; host or cells: 293T cells (pcDNA3.3 vector), RIPA extract purified on Ni Sepharose excel
T1 sequence (Q96SW2 whole entry): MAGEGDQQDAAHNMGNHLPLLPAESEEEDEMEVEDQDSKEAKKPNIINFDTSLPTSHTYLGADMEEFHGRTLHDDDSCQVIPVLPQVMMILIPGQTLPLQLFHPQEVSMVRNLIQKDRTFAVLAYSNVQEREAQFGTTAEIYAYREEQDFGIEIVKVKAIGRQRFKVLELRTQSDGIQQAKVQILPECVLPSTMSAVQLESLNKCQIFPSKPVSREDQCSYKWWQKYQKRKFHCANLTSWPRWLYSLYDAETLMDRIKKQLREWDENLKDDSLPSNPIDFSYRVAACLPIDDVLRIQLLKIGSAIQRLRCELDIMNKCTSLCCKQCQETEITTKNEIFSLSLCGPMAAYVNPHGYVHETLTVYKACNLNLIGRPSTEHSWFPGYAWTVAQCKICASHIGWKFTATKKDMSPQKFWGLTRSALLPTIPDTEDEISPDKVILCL
Protocol: CRBN was prepared as follows. A T7 tag was added 5′-upstream of, and a FLAG tag and a histidine tag were added 3′-downstream of a full-length CRBN gene. The gene was introduced into a pcDNA3.3 expression vector (Invitrogen), thereby constructing a plasmid DNA. Next, a Kozak sequence was added 5′-upstream of the T7 tag using a KOD-Plus-Mutagenesis Kit (TOYOBO). The plasmid DNA was transfected into 293T cells. After 4 days of culture at 37° C. with 5% CO2, cells were extracted with a RIPA buffer (Thermo), and then the extracted fraction was purified using Ni Sepharose excel (GE Healthcare). Since the purified fraction contained imidazole, TBS (Nacalai Tesque) was subjected to buffer exchange. […] Centrifugation was performed to separate the resultants into a flow-through (F) fraction and a bead (B) fraction. Protein bands corresponding to CRBN were separated by SDS-PAGE, and then detected by Western blot. […] Note that “I” indicates “Input fraction”.

[6] = tested on: KMS34 high-risk MM cell line; assay: WST-1 cell proliferation inhibition (Example 8), KMS34; type: cell-based; conditions: Homo sapiens, KMS-34, WST-1, 48 hours, read-out: IC50, cell proliferation inhibitory activity, KMS34
Protocol: as §2

Row | Structure (SMILES) | IC50 [1] [µM] | Stability in medium [2] | Stability in mouse blood plasma [3] | In vitro cell proliferation inhibitory activity against various high-risk MM cells [4] | IC50 [5] [µM] | Binding of CRBN to drug immobilized on beads (pull-down, Western blot) (cereblon (CRBN)) | IC50 [6] [µM]
1 | COCCOCCOCCOCCOCCOCCOCCOCCOCCOCCOCCOCCOc1cc2c(cc1N)C(=O)N(c1c(C(C)C)cccc1C(C)C)C2=O [PEG11(O)-TC11] | 18.1 |  |  |  |  |  | 
2 | COCCOCCOCCOCCOCCOCCOCCOCCOCCOCCOCCOCCC(=O)OCCOc1cc2c(cc1N)C(=O)N(c1c(C(C)C)cccc1C(C)C)C2=O [PEG11(E)-TC11] | 5.4 | slowly degraded even in medium | very quickly hydrolyzed by esterase in mouse blood plasma | significant in vitro cell proliferation inhibitory activity |  |  | 
3 | CC(C)c1cccc(C(C)C)c1N1C(=O)c2ccc(N)cc2C1=O [TC11, 2-(2,6-di-isopropylphenyl)-5-amino-1H-isoindole-1,3-dione, reference compound] |  |  |  |  | 1.6 | did not bind | 6.5
